{
  "source": "patent US20190262330A1",
  "about": "“Method of Treating Hepatocellular Carcinoma Using N-(4-(6,7-dimethoxyquinolin-4-yloxy)phenyl)-N′-(4-fluorophenyl)cyclopropane-1,1-dicarboxamide, (2S)-hydroxybutanedioate” (Exelixis, Inc., priority 2017, published 2019)",
  "key": {"[1]": {"target": "CYP2B6 (Homo sapiens, UniProt P20813)", "sequence (P20813 whole entry)": "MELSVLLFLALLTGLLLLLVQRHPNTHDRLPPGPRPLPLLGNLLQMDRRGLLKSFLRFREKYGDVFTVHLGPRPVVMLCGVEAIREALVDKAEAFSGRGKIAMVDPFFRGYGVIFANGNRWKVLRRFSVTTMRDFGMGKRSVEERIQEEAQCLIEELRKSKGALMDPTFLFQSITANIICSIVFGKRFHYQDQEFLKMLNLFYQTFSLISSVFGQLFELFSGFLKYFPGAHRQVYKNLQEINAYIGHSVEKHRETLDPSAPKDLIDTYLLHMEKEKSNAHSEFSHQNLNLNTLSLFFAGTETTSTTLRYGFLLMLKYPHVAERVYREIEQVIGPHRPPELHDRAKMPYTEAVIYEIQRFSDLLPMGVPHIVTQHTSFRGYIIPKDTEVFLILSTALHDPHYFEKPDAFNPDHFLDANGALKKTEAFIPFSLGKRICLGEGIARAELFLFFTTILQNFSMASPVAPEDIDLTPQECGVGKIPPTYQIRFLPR", "assay": "In vitro metabolic pathways", "format": "in vitro ADME"}, "[2]": {"target": "CYP2E1 (Homo sapiens, UniProt P05181)", "sequence (P05181 whole entry)": "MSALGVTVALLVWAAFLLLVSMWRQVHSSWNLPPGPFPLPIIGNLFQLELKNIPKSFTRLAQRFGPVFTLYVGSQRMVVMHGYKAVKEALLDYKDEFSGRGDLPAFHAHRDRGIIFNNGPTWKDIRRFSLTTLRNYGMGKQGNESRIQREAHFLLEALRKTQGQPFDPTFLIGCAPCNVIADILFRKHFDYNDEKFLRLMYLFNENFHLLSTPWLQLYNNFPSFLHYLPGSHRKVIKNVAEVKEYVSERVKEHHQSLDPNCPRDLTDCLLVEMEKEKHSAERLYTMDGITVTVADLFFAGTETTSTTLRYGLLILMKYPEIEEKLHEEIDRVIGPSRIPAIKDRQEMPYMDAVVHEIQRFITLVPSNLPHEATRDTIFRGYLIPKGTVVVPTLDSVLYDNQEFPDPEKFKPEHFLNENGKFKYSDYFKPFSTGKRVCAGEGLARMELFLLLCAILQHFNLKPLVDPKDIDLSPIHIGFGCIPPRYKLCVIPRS", "assay": "In vitro metabolic pathways", "format": "in vitro ADME"}, "[3]": {"system": "CYP1A2", "assay": "In vitro CYP induction", "format": "in vitro ADME"}, "[4]": {"system": "CYP2C9", "assay": "In vitro CYP induction", "format": "in vitro ADME"}, "[5]": {"system": "murine models of hepatocellular carcinoma", "details": "mouse, in vivo; cited from earlier work"}, "[6]": {"target": "MRP2 (Homo sapiens, UniProt Q92887)", "assay": "Drug transporter systems", "format": "in vitro ADME", "details": "in vitro"}, "[7]": {"target": "RET (Homo sapiens, UniProt P07949)", "assay": "In vitro biochemical and/or cellular kinase assays"}, "[8]": {"target": "T1, CYP2C19 (Homo sapiens, UniProt P33261)", "T1 sequence (P33261 whole entry)": "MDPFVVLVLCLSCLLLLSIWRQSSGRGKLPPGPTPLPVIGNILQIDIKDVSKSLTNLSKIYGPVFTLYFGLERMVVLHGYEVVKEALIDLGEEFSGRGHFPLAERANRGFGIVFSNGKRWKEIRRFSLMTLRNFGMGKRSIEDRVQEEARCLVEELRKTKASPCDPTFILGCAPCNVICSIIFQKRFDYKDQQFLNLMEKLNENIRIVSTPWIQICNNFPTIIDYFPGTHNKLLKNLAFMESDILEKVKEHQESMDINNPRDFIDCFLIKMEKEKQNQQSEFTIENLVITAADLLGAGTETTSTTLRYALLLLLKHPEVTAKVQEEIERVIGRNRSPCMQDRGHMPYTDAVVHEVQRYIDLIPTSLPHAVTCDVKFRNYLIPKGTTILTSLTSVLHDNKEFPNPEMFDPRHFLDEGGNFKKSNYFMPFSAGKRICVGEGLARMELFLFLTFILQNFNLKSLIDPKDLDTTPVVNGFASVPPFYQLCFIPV", "assay": "In vitro CYP inhibition", "format": "in vitro ADME"}, "[9]": {"system": "CYP2C8", "assay": "In vitro CYP induction", "format": "in vitro ADME"}, "[10]": {"assay": "Clinical pharmacokinetics", "format": "in vivo, human"}, "[11]": {"target": "ROS1 (Homo sapiens, UniProt P08922)", "assay": "In vitro biochemical and/or cellular kinase assays"}, "[12]": {"target": "CYP3A4 (Homo sapiens, UniProt P08684)", "sequence (P08684 whole entry)": "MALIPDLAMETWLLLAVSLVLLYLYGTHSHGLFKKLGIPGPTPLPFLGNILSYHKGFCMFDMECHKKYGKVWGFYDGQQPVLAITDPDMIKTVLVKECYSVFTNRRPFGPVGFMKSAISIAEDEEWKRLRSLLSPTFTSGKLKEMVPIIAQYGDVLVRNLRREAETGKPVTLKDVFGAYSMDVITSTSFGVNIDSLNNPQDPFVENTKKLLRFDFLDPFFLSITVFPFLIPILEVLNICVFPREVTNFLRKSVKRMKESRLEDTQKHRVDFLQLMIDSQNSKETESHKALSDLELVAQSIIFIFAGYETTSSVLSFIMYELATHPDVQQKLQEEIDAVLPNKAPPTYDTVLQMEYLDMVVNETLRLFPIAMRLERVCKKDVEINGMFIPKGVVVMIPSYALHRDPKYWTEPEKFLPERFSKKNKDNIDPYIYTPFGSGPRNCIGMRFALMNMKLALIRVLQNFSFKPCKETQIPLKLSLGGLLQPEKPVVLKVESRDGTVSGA", "assay": "In vitro CYP inhibition", "format": "in vitro ADME"}, "[13]": {"target": "KIT (Homo sapiens, UniProt P10721)", "sequence (P10721 26-976)": "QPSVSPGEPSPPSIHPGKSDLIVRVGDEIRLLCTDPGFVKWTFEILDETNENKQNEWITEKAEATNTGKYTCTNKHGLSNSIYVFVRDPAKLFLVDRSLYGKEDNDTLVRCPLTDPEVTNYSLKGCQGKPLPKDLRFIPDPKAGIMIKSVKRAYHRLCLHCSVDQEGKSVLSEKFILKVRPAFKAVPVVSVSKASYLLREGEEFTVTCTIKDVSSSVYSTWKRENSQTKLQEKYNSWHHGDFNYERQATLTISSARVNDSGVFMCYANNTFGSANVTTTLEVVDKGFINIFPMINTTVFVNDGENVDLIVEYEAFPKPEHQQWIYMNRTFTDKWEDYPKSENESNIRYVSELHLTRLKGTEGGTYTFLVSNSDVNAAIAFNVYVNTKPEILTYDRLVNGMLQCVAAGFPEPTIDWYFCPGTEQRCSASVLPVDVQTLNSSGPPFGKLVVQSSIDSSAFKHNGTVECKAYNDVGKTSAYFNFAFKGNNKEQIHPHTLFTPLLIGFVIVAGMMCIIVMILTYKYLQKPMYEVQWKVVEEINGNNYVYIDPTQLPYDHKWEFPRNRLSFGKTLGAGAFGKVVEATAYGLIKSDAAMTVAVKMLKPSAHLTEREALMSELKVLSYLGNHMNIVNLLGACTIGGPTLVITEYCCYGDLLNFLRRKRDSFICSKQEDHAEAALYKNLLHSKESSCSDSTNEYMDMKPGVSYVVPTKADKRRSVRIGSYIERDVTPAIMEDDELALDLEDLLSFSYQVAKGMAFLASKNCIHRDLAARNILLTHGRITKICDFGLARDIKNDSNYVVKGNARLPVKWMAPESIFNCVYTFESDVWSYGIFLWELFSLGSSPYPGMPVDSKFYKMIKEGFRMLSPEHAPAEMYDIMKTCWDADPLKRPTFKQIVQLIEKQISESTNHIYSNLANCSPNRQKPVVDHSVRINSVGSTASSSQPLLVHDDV", "assay": "In vitro biochemical and/or cellular kinase assays"}, "[14]": {"system": "patients with advanced hepatocellular carcinoma", "assay": "Phase 3 CELESTIAL trial, safety", "format": "in vivo, human", "method": "Treatment interruptions and dose reductions (to 40 mg and then to 20 mg) were utilized to manage adverse events. Patients received study treatment as long as they experienced clinical benefit as judged by the investigator or until they experienced unacceptable toxicity.\nSecondary efficacy endpoints were progression-free survival, defined as the time from randomization to the earlier of radiographic progression or death due to any cause, and objective response rate. Tumor assessments were performed using computed tomography or magnetic resonance imaging at baseline and every 8 weeks after randomization until the later of 8 weeks after radiographic progression or treatment discontinuation. Tumor response and progression were assessed by the investigator using Response Evaluation Criteria In Solid Tumors (RECIST) version 1.1. Eisenhauer E A, Therasse P, Bogaerts J, et al. New response evaluation criteria in solid tumours: revised RECIST guideline (version 1.1). Eur J Cancer 2009; 45:228-47. Safety was continuously evaluated, and the severity of adverse events was assessed by the investigator using the National Cancer Institute Common Terminology Criteria for Adverse Events, version 4. Progression-free survival was tested by stratified log-rank test; significance level 0.04. Overall response rate was tested by 2-sided Fisher's exact test; significance level Of 0.01.\nEfficacy was analyzed in all randomized patients by the intent-to-treat principle. Safety was analyzed in all patients who received at least one dose of study treatment. For time-to-event endpoints, hypothesis testing was done using the stratified log-rank test with the stratification factors used for randomization; median durations and associated 95% confidence intervals were estimated using the Kaplan-Meier method. Hazard ratios were estimated using Cox regression models. Hypothesis testing for objective response was done with the Cochran-Mantel-Haenszel method. All subgroup analyses of overall survival and progression-free survival were prespecified except for those based on extrahepatic spread of disease or macrovascular invasion as separate factors or sorafenib as the only prior therapy. For subgroup analyses, no adjustments were made for multiplicity, hazard ratios are unstratified, and confidence intervals are considered descriptive.\nPatients on both arms who had disease progression could continue treatment at the discretion of the investigator [see Clinical Studies (14)]."}, "[15]": {"target": "TIE-2 (Homo sapiens, UniProt Q02763)", "sequence (Q02763 23-1124)": "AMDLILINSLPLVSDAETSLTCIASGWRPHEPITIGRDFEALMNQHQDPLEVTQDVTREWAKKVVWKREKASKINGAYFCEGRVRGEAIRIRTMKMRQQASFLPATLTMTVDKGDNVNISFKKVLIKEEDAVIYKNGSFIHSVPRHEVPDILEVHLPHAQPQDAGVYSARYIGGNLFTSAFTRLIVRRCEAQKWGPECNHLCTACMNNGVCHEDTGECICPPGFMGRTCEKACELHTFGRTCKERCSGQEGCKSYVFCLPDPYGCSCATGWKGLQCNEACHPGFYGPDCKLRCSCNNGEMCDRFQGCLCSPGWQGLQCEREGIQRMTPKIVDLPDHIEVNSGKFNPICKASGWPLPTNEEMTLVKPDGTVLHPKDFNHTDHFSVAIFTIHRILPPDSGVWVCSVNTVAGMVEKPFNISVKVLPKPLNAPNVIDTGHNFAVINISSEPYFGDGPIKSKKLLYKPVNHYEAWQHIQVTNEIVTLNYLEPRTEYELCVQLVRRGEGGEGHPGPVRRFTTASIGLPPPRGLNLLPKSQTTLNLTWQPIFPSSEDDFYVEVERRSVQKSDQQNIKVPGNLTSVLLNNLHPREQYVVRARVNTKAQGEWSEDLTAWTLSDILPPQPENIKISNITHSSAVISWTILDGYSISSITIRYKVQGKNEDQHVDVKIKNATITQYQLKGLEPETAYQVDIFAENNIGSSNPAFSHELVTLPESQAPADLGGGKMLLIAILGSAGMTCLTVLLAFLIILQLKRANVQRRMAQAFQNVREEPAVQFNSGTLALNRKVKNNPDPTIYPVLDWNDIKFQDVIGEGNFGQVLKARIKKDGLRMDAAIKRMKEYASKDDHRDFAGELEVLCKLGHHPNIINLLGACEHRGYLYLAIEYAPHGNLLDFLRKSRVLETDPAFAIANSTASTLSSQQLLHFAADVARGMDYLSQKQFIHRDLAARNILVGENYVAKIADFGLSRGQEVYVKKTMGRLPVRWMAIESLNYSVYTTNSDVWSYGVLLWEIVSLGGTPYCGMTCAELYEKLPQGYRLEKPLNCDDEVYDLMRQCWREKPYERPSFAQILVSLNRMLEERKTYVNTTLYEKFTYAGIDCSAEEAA", "assay": "In vitro biochemical and/or cellular kinase assays"}, "[16]": {"target": "CYP1A2 (Homo sapiens, UniProt P05177)", "sequence (P05177 whole entry)": "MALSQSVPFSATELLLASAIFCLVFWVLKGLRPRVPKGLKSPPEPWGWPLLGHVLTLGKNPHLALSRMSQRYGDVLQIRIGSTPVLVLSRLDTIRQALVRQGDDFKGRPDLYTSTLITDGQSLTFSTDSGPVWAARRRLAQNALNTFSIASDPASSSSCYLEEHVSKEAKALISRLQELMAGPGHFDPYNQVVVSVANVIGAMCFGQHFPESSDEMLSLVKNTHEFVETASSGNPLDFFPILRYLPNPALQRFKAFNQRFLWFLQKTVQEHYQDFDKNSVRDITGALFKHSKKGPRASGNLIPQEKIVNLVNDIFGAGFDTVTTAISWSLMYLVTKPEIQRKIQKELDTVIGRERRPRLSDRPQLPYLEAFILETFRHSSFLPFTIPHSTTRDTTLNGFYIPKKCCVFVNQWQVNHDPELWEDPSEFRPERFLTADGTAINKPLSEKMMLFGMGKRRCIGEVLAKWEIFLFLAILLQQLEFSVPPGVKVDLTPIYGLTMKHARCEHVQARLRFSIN", "assay": "In vitro metabolic pathways", "format": "in vitro ADME"}, "[17]": {"target": "T1, CYP2C19", "assay": "In vitro metabolic pathways", "format": "in vitro ADME"}, "[18]": {"target": "TRKB (Homo sapiens, UniProt Q16620)", "assay": "In vitro biochemical and/or cellular kinase assays"}, "[19]": {"target": "CYP2D6 (Homo sapiens, UniProt P10635)", "sequence (P10635 whole entry)": "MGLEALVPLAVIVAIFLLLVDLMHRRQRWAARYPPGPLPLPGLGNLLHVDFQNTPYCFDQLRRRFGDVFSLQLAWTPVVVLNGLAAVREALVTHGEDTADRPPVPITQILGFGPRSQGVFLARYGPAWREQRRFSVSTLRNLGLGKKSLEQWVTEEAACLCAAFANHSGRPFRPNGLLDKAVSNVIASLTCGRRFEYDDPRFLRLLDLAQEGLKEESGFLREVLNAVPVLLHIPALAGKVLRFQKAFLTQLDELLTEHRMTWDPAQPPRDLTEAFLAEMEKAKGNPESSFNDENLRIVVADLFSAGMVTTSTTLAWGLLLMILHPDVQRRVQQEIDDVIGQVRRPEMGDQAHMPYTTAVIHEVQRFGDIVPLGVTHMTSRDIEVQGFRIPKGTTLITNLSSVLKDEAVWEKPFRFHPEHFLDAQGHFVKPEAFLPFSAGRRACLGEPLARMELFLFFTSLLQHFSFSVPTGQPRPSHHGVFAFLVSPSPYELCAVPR", "assay": "In vitro CYP inhibition", "format": "in vitro ADME"}, "[20]": {"target": "AXL (Homo sapiens, UniProt P30530)", "assay": "In vitro biochemical and/or cellular kinase assays"}},
  "data": [
    {"smiles": "COc1cc2nccc(Oc3ccc(NC(=O)C4(C(=O)Nc5ccc(F)cc5)CC4)cc3)c2cc1OC", "note": "[cabozantinib]", "values": [
      {"measurement": "Effect of inhibition of CYP2B6 on metabolite formation", "setting": "[1]", "value": "no effect"},
      {"measurement": "Effect of inhibition of CYP2E1 on metabolite formation", "setting": "[2]", "value": "no effect"},
      {"measurement": "Induction of CYP1A2", "setting": "[3]", "value": "does not induce"},
      {"measurement": "Induction of CYP2C9", "setting": "[4]", "value": "does not induce"},
      {"measurement": "Tumor growth", "setting": "[5]", "value": "inhibits tumor growth"},
      {"measurement": "MRP2 substrate status", "setting": "[6]", "value": "substrate"},
      {"measurement": "Tyrosine kinase activity of RET", "setting": "[7]", "value": "inhibits"},
      {"measurement": "Effect on CYP2C19 pathway", "setting": "[8]", "value": "affected by cabozantinib in vitro"},
      {"measurement": "Induction of CYP2C8", "setting": "[9]", "value": "does not induce"},
      {"measurement": "Steady state achieved", "setting": "[10]; 140 mg daily", "value": "≤ 15", "unit": "days"},
      {"measurement": "Vd/F", "setting": "[10]; human, plasma, po, read-out: Oral volume of distribution (VZ/F)", "value": "~319", "unit": "L"},
      {"measurement": "Tmax", "setting": "[10]; human, plasma, oral, read-out: Median time to peak plasma concentrations (Tmax)", "value": "3 to 4", "unit": "h"},
      {"measurement": "Tyrosine kinase activity of ROS1", "setting": "[11]", "value": "inhibits"},
      {"measurement": "Effect on CYP3A4 pathway", "setting": "[12]", "value": "affected by cabozantinib in vitro"},
      {"measurement": "Tyrosine kinase activity of KIT", "setting": "[13]", "value": "inhibits"},
      {"measurement": "Grade 5 adverse events considered related to study treatment", "setting": "[14]; CELESTIAL", "value": 6, "unit": "patients"},
      {"measurement": "Grade 5 adverse events within 30 days of last dose", "setting": "[14]; CELESTIAL", "value": 12, "unit": "%"},
      {"measurement": "Adverse events of any grade regardless of causality", "setting": "[14]; human, in vivo", "value": 99, "unit": "%"},
      {"measurement": "Adverse events of grade 3 or 4", "setting": "[14]; human, in vivo", "value": 68, "unit": "%"},
      {"measurement": "Any dose reduction", "setting": "[14]; human, in vivo", "value": 62, "unit": "%"},
      {"measurement": "Diarrhea, Grade 3/4", "setting": "[14]; human, in vivo", "value": 10, "unit": "%"},
      {"measurement": "Discontinuation due to treatment-related adverse event", "setting": "[14]; human, in vivo", "value": 16, "unit": "%"},
      {"measurement": "Dose reduction due to diarrhea", "setting": "[14]; human, in vivo", "value": 10, "unit": "%"},
      {"measurement": "Dose reduction due to fatigue", "setting": "[14]; human, in vivo", "value": 7, "unit": "%"},
      {"measurement": "Dose reduction due to hypertension", "setting": "[14]; human, in vivo", "value": 7, "unit": "%"},
      {"measurement": "Dose reduction due to increased aspartate aminotransferase", "setting": "[14]; human, in vivo", "value": 6, "unit": "%"},
      {"measurement": "Dose reduction due to palmar-plantar erythrodysesthesia syndrome", "setting": "[14]; human, in vivo", "value": 22, "unit": "%"},
      {"measurement": "Fatigue, Grade 3/4", "setting": "[14]; human, in vivo", "value": 10, "unit": "%"},
      {"measurement": "Hypertension, Grade 3/4", "setting": "[14]; human, in vivo", "value": 16, "unit": "%"},
      {"measurement": "Increased aspartate aminotransferase, grade 3 or 4 adverse event", "setting": "[14]; human, in vivo", "value": 12, "unit": "%"},
      {"measurement": "Median time to first dose reduction", "setting": "[14]; human, in vivo", "value": 38, "unit": "days"},
      {"measurement": "Palmar-plantar erythrodysesthesia, Grade 3/4", "setting": "[14]; human, in vivo", "value": 17, "unit": "%"},
      {"measurement": "Serious adverse events", "setting": "[14]; human, in vivo", "value": 50, "unit": "%"},
      {"measurement": "Tyrosine kinase activity of TIE-2", "setting": "[15]", "value": "inhibits"},
      {"measurement": "Effect of inhibition of CYP1A2 on metabolite formation", "setting": "[16]", "value": "no effect"},
      {"measurement": "Effect of inhibition of CYP2C19 on metabolite formation", "setting": "[17]", "value": "no effect"},
      {"measurement": "Tyrosine kinase activity of TRKB", "setting": "[18]", "value": "inhibits"},
      {"measurement": "Inhibition of CYP2D6", "setting": "[19]", "value": "does not inhibit"},
      {"measurement": "Tyrosine kinase activity of AXL", "setting": "[20]", "value": "inhibits"}
    ]}
  ]
}
